Earlier results in article PMC8160438, “A Novel Heptapeptide, GPPGPAG Transfers to the Brain, and Ameliorates Memory Dysfunction and Dendritic Atrophy in Alzheimer’s Disease Model Mice” (Frontiers in Pharmacology, 2021).

Details: in vivo, cited from earlier work
Protocol: In Figure 6H, the mean value of GPPGPAG in the cerebral cortex is 2.748 μg/g of tissue at 180 min after p.o. administration of 500 mg/mouse. When 10 mg/kg GPPGPAG is applied per orally, the transferred amount of GPPGPAG in the brain is calculated as 0.598 pmol. […] Identification of the BBB transporting system for GPPGPAG should be done in future.

Substance | transport into brain | crossing of the blood-brain barrier (po)
Gly-Pro | transported into brain | –
Tyr-Pro | transported into brain | –
RPRTRLHTHRNR-NH2 [12-amino acid peptide that crosses the blood-brain barrier] | – | crosses the blood-brain barrier (BBB) without digestion
